# No end group written: not given here.
# Key:
# HCMV strain AD169 = experiment: HCMV plaque formation assay in MRC-5 cells; type: cell-based
# HIV-1IIIB = experiment: HIV-1 antiviral assay in CEM-SS cells (MTS readout); type: cell-based
# HUVEC = experiment: Endothelial tube formation assay; type: cell-based, human; conditions: single peptide, 10 micrograms per ml, 20 hours
# Protocol: The endothelial tube formation assay is based on the ability of endothelial cells to form three-dimensional capillary-like tubular structures when cultured on a gel of basement membrane extract. […] Pre-labeled HUVEC with Calcein AM were seeded in a 96-well culture plate coated with extracellular metrix (Chemicon international Cat. ECM625) and treated with test peptides—10 micrograms per ml—in full growth medium. Positive control was vehicle only. The endothelial cells were allowed to form tubes foe 20 hours and were then examined under an inverted fluorescent microscope. Duplicate wells for each treatment were photographed and quantitatevily analyzed for an average tubule length using image analysis software ImageProPlus. Raw data were expressed as average tubule lenghs in pixels ± standard deviation. Statistic p values were computed using the Student's t-test.
# spleen cells = experiment: Th1/Th2 cytokine profiling assay; type: cell-based, Balb/c mice; conditions: 10 micrograms per ml; Ovalbumin restimulation, 72 hours
# [1] = tested on: Primary Human endothelial cells (HUVEC); experiment: Endothelial cell migration assay; type: cell-based; conditions: single peptide, 10 micrograms per ml, 22 hours
# [2] = tested on: hepatitis B virus (HBV) ayw strain in HepG2-2.2.15 cells; experiment: HBV experimental assay system, secreted HBV DNA by TaqMan PCR; type: cell-based; conditions: single peptide, 10 micrograms per ml; HepG2-2.2.15, six days
# Protocol: HepG2-2.2.15 is a stable cell line containing the hepatitis B virus (HBV) ayw strain genome (ATCC Cat. No. CRL-11997). […] After 16-24 hours the confluent monolayer of HepG2-2.2.15 cells was washed and the medium was replaced with complete medium containing test peptides—10 micrograms per ml—in duplicate. […] Three days later the culture medium was replaced with fresh medium containing the peptides. Six days following the initial administration of the peptides, the cell culture supernatants was collected, treated with pronase and DNAse and then used in a real-time quantitative TaqMan PCR assay. The PCR-amplified HBV DNA was detected in real-time by monitoring increases in fluorescence signals that result from the exonucleolytic degradation of a quenched fluorescence probe molecule that hybridizes to the amplified HBV DNA. For each PCR amplification, a standard curve was simultaneously generated using dilutions of purified HBV DNA. Antiviral activity was calculated from the reduction in HBV DNA levels (% virus control).
molecule,measurement,setting,value
"Nc1nc(O)c2ncn(COC(CO)CO)c2n1 [Ganciclovir, reference compound]",antiviral activity of positive control compound (HCMV),HCMV strain AD169; HCMV AD169,expected levels of antiviral activity
CC(C)(C)NC(=O)[C@@H]1CN(Cc2cccnc2)CCN1C[C@@H](O)C[C@@H](Cc1ccccc1)C(=O)N[C@H]1c2ccccc2C[C@H]1O [indinavir],antiviral activity of positive control compounds (HIV-1),HIV-1IIIB,expected levels of antiviral activity
Cc1cn([C@H]2C[C@H](N=[N+]=[N-])[C@@H](CO)O2)c(=O)[nH]c1=O [AZT],antiviral activity of positive control compounds (HIV-1),HIV-1IIIB,expected levels of antiviral activity
"His-Asp-Glu-Phe-Glu-Arg-His-Ala-Glu-Gly-Thr-Phe-Thr-Ser-Asp-Val-Ser-Ser-Tyr-Leu-Glu-Gly-Gln-Ala-Ala-Lys-Glu-Phe-Ile-Ala-Trp-Leu-Val-Lys-Gly-Arg-Gly-OH (HDEFERHAEGTFTSDVSSYLEGQAAKEFIAWLVKGRG-OH; listed as Homo sapiens) [Peptide 2, commercially available known peptide]",inhibition of the tube formation of human endothelial cells,HUVEC,25%
same,IFNγ spleen cells; TH1 response (% of control),spleen cells,78.0 % of control
same,IL-2 spleen cells (% of control),spleen cells,163.4 % of control
same,IL-4 spleen cells; TH2 response (% of control),spleen cells,135.2 % of control
same,IL-5 spleen cells; TH2 response (% of control),spleen cells,121.7 % of control
same,TNF-a spleen cells; TH1 response (% of control),spleen cells,145.1 % of control
same,inhibition of HCMV plaque formation as compared to the virus control,"HCMV strain AD169; 10 micrograms per ml, 7-10 days",did not inhibit
same,inhibition of the migration of human endothelial cells,[1],65%
same,inhibition of HBV replication as compared to the virus control infection,[2],62.3%

# Reference: patent US8193149B2, “Use of Peptide YY, alone or in combination with glucagon-like peptide, for use in medicine” (mondoBIOTECH Laboratories AG, priority 2007, dated 2012)
